This is an account of results in ChEMBL document CHEMBL1137063, “The impact of spacer structure on 5-HT7 and 5-HT1A receptor affinity in the group of long-chain arylpiperazine ligands” (Bioorg Med Chem Lett, 2004).

Assay [1] concerns the target T1, 5-hydroxytryptamine receptor 1A (Rattus norvegicus, UniProt P19327).
T1 sequence (P19327 whole entry): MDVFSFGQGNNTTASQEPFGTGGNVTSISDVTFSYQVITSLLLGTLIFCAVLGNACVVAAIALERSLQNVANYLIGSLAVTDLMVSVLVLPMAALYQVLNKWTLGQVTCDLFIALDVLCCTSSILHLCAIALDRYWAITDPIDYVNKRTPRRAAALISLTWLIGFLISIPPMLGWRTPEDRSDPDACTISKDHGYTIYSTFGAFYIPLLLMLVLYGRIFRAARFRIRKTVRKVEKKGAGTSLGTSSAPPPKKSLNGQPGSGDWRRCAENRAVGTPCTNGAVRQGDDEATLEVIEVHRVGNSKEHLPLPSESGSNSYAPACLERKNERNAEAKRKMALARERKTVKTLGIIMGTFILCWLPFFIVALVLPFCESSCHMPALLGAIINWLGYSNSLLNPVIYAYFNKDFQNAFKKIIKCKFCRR
Briefly: In vitro ability to displace the radioligand [3H]-OH-DPAT from binding to rat 5-hydroxytryptamine 1A receptor.

Assay [2] concerns the target 5-hydroxytryptamine receptor 7 (Rattus norvegicus, UniProt P32305). Briefly: In vitro ability to displace the radioligand [3H]5-CT from binding to rat 5-hydroxytryptamine 7 receptor.

A word on the Ki: it is a measure of affinity in units of concentration, obtained from inhibition or displacement.

Sequence of 5-hydroxytryptamine receptor 7 (P32305 whole entry): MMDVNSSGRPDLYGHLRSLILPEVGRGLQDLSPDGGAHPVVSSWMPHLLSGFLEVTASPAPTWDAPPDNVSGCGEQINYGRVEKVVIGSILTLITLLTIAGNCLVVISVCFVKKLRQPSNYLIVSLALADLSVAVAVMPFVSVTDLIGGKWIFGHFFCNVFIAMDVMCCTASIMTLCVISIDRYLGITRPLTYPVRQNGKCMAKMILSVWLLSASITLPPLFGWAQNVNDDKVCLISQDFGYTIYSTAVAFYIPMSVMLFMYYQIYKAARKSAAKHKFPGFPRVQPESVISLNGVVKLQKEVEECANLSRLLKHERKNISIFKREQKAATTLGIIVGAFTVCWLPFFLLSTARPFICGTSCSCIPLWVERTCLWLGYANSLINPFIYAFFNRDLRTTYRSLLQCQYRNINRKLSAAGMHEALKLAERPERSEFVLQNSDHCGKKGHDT

Regarding `COc1ccccc1N1CCN(Cc2ccccc2CN2C(=O)CCC2=O)CC1`, the Ki in assay [1] is 415 nM; in assay [2], 910 nM.
Consider `COc1ccccc1N1CCN(Cc2ccccc2CN2C(=O)c3ccccc3C2=O)CC1`, for which the Ki in assay [1] worked out at 405 nM; in assay [2], 367 nM.
With `COc1ccccc1N1CCN(C/C=C/CN2C(=O)c3ccccc3C2=O)CC1`, the Ki in assay [1] was 5 nM; in assay [2] it was 36 nM.
As for `COc1ccccc1N1CCN(C/C=C\CN2C(=O)CCC2=O)CC1`, the Ki in assay [1] amounted to 157 nM; in assay [2], 790 nM.
The matching figures for `COc1ccccc1N1CCN([C@H]2CC[C@H](N3C(=O)CCC3=O)CC2)CC1`: 15.2 nM and 11500 nM.
With `COc1ccccc1N1CCN(C/C=C\CN2C(=O)c3ccccc3C2=O)CC1`, the Ki in assay [1] was found to be 77 nM; in assay [2], 353 nM.
For `COc1ccccc1N1CCN(C/C=C/CN2C(=O)CCC2=O)CC1`, in that order: 29 nM and 63 nM.
For `COc1ccccc1N1CCN([C@H]2CC[C@H](N3C(=O)c4ccccc4C3=O)CC2)CC1`, in that order: 8 nM and 2040 nM.
